Experiments:
Type in all cases: in vivo
[1] = system: GLYCINE MAX(L) MERR. CV. WILLIAMS; assay: Preemergence herbicidal evaluation, GLXMAW (Soybean, Williams); details: Rate 0.500 kg/ha, rated four to five weeks after treatment
In short: (§1)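 Seeds sown in potting soil cups, then sprayed preemergence with aqueous acetone compound solution at about 0.125 to 0.50 kg per hectare. Greenhouse-grown, rated 4–5 weeks after treatment on a 0–9 visual scale against control.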

[2] = system: CYPERUS SEROTINUS, ROTTB.; assay: Preemergence weed control under flooded paddy conditions, CYPSE (Flatsedge); details: 0.500 kg/ha, preemergence, 3-4 weeks after treatment
In short: (§2)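 Visual 0-9 rating against untreated control, covering stand, vigor, malformation, size and chlorosis, scored three to four weeks post-treatment in a greenhouse. Application was into 1.5-3 cm flood water over silt loam sown at 0.5 cm. The 50/50 v/v aqueous/acetone doses were about 0.5, 0.25, 0.125 and 0.063 kg/ha.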

CASSIA OBTUSIFOLIA, L. [3] = assay: Postemergence herbicidal evaluation, CASOB (Sicklepod); parameters: key to CASOB rating / Herbicidal effect rating, CASOB / CASOB: 0-9 visual rating scale vs untreated control
In short: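 Each value is a 0–9 visual rating of plant appearance compared with control, recorded 4–5 weeks after a 0.125–0.500 kg/ha spray, with multiple tests averaged.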

CYPERUS IRIA = assay: Preemergence weed control under flooded paddy conditions, CYPIR (Rice Flatsedge); details: 0.500 kg/ha, preemergence, 3-4 weeks after treatment
In short: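 This preemergence test mimicked flooded paddy conditions: rice flatsedge propagules were sown in the upper 0.5 cm of silt loam in undrained 32 oz. containers (10.5 cm diameter), with water held 1.5 to 3 cm over the soil. After normal greenhouse care, plants were scored 0-9 for stand, vigor, malformation, size, chlorosis and appearance relative to controls.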

ZEA MAYS L. = assay: Preemergence herbicidal evaluation, ZEAMX (Corn, Field); details: Rate 0.500 kg/ha, rated four to five weeks after treatment
In short: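 Preemergence herbicidal activity on field corn: seeds in potting soil were sown atop roughly one inch of soil in separate pint cups, treated, and grown under standard greenhouse care. Four to five weeks post-treatment, stand, vigor, malformation, size, chlorosis and overall appearance were compared with a control and scored 0-9.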

[…], PRESL. = Preemergence weed control under flooded paddy conditions, MOOVA (Monochoria); details: 0.500 kg/ha, preemergence, 3-4 weeks after treatment
In short: as §2

[4] = system: ECHINOCHLOA CRUS-GALLI, (L) BEAU; assay: Preemergence herbicidal evaluation, ECHCG (Barnyardgrass); details: Rate 0.500 kg/ha, rated four to five weeks after treatment
In short: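 In this preemergence herbicide test, cups holding seeds of ECHCG sown in potting soil over roughly one inch of soil were treated and then grown under conventional greenhouse care. Tests were ended four to five weeks after treatment, and injury was scored 0-9 from stand, vigor, malformation, size, chlorosis and overall appearance relative to a control.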

[5] = system: ECHINOCHLOA ORYZOIDES (ARD.)FRITSCH; assay: Preemergence weed control under flooded paddy conditions, ECHORC (Watergrass (Calif.)); details: 0.500 kg/ha, preemergence, 3-4 weeks after treatment
In short: as §2

SAGITTARIA PYGMAEA, L. = assay: Preemergence weed control under flooded paddy conditions, SAGPY (Arrowhead (Pygmaea)); details: 0.500 kg/ha, preemergence, 3-4 weeks after treatment
In short: as §2

CASSIA OBTUSIFOLIA, L. [6] = assay: Preemergence herbicidal evaluation, CASOB (Sicklepod); details: Rate 0.500 kg/ha, rated four to five weeks after treatment
In short: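 Preemergence herbicidal activity against sicklepod was assessed by planting seed mixed with potting soil atop about one inch of soil in pint cups. After treatment the cups were watered and handled per standard greenhouse practice. Tests ended four to five weeks later, with plant stand, vigor, malformation, size, chlorosis and overall appearance scored 0-9 relative to a control.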

GALIUM APARINE = assay: Preemergence herbicidal evaluation, GALAP (Galium); details: Rate 0.500 kg/ha, rated four to five weeks after treatment
In short: as §1

[7] = system: TRITICUM AESTIVUM, CV. APOLLO; assay: Preemergence herbicidal evaluation, TRZAWO (Wheat, Winter, CV. APOLLO); details: Rate 0.500 kg/ha, rated four to five weeks after treatment
In short: as §1

## COC(=O)Cn1c(=O)n(C)c(=O)n(-c2cc(Oc3cc(Cl)cc(Cl)c3)ccc2[N+](=O)[O-])c1=O [Compound 35, Methyl 3-[5-(3,5-dichlorophenoxy)-2-nitrophenyl]tetrahydro-5-methyl-2,4,6-trioxo-s-triazine-1(2H)-acetate]
[1]
  GLXMAW herbicidal rating: 1.0
[2]
  Herbicidal effect rating, CYPSE: 0.0
CASSIA OBTUSIFOLIA, L. [3]; Rate 0.125 kg/ha
  CASOB rating: 0.0
CASSIA OBTUSIFOLIA, L. [3]; Rate 0.250 kg/ha
  CASOB rating: 0.0
CASSIA OBTUSIFOLIA, L. [3]; Rate 0.500 kg/ha
  CASOB rating: 0.0
CYPERUS IRIA
  Herbicidal effect rating, CYPIR: 0.0
ZEA MAYS L.
  ZEAMX herbicidal rating: 0.0
[…], PRESL.
  Herbicidal effect rating, MOOVA: 0.0
[4]
  ECHCG herbicidal rating: 0.0
[5]
  Herbicidal effect rating, ECHORC: 0.0
SAGITTARIA PYGMAEA, L.
  Herbicidal effect rating, SAGPY: 0.0
CASSIA OBTUSIFOLIA, L. [6]
  CASOB herbicidal rating: 0.0
GALIUM APARINE
  GALAP herbicidal rating: 0.0
[7]
  TRZAWO herbicidal rating: 0.0
